# Columns and labels:
# MIA PaCa = experiment: cells; settings: Homo sapiens, MIA PaCa-2, 72 h, read-out: MIA PaCa
# 67nR = experiment: cells; settings: 72 h, read-out: 67nR
# MDA-MB 231 = experiment: cells; settings: Homo sapiens, MDA-MB-231, 72 h, read-out: MDA-MB 231
# 4T1 = experiment: cells; settings: Mus musculus, 4T1, 72 h, read-out: 4T1
# BxPC3 = experiment: cells; settings: Homo sapiens, BXPC-3, 72 h, read-out: BxPC3
# [1] = target: Human recombinant Methionine Aminopeptidase 2 (MetAp2) (Homo sapiens, UniProt P50579); experiment: fluorometric H-Met-AMC hydrolysis; type: biochemical
# Sequence of Human recombinant Methionine Aminopeptidase 2 (MetAp2) (P50579 2-478): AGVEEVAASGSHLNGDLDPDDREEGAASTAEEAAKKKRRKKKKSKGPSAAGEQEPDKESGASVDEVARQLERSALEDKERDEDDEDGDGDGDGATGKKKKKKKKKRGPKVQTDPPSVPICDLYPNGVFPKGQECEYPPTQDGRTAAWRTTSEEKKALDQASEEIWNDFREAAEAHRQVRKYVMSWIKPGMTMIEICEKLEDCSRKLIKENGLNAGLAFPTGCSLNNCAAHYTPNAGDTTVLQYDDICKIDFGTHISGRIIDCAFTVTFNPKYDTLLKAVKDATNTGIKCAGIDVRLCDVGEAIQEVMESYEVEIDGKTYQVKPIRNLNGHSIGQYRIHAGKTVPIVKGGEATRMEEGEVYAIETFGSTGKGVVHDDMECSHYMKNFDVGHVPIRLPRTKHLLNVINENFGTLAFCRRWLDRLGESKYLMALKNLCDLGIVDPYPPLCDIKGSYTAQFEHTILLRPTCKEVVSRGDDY
SMILES,IC50 (MIA PaCa),IC50 (67nR),IC50 (MDA-MB 231),IC50 (4T1),IC50 (BxPC3),IC50 [1]
CC(C)[Si](Oc1ccc([N+](=O)[O-])c2cccnc12)(C(C)C)C(C)C [compound 3],9.71 ± 2.96 µM,14.4 ± 2.97 µM,17.3 ± 1.07 µM,2.76 ± 0.21 µM,16.7 ± 1.73 µM,2.86 µM
CC(C)(C)[Si](Oc1ccc([N+](=O)[O-])c2cccnc12)(c1ccccc1)c1ccccc1 [compound 4],10.4 ± 1.56 µM,15.6 ± 2.21 µM,15.9 ± 1.47 µM,4.6 ± 2.41 µM,12.8 ± 1.09 µM,3.42 µM
C[Si](C)(C)CCOCOc1ccc([N+](=O)[O-])c2cccnc12 [compound 7],28.2 ± 3.35 µM,–,34.7 ± 2.17 µM,2.43 ± 1.05 µM,18.1 ± 2.86 µM,21.1 µM
O=[N+]([O-])c1ccc(OCOCc2ccccc2)c2ncccc12 [compound 9],60.2 ± 1.52 µM,–,> 100 µM,25.4 ± 3.1 µM,44.1 ± 2.09 µM,92.1 µM

# Continued, values first:
IC50 (MIA PaCa),IC50 (67nR),IC50 (MDA-MB 231),IC50 (4T1),IC50 (BxPC3),IC50 [1],SMILES
11.5 ± 2.06 µM,16.8 ± 2.74 µM,20.4 ± 1.22 µM,4.67 ± 1.13 µM,13.9 ± 1.77 µM,–,"O=[N+]([O-])c1ccc(O)c2ncccc12 [compound 1, 5-nitroquinolin-8-ol]"
10.4 ± 2.26 µM,23.3 ± 1.5 µM,19.2 ± 1.52 µM,4.92 ± 1.63 µM,15.2 ± 2.01 µM,4.3 µM,CC(C)(C)[Si](C)(C)Oc1ccc([N+](=O)[O-])c2cccnc12 [compound 2]
13.8 ± 0.85 µM,25.2 ± 1.96 µM,13.1 ± 1.96 µM,4.22 ± 0.32 µM,25.6 ± 3.35 µM,–,CS(=O)(=O)Oc1ccc([N+](=O)[O-])c2cccnc12 [compound 5]
9.63 ± 2.35 µM,10.3 ± 1.45 µM,13.8 ± 2.98 µM,4.13 ± 1.17 µM,11.7 ± 1.64 µM,> 100 µM,O=[N+]([O-])c1ccc(OS(=O)(=O)C(F)(F)F)c2ncccc12 [compound 6]

# From article doi:10.1101/2025.10.20.683482v1 (biorxiv, 2025)
